According to article PMC8037182, “Solvothermal Synthesis of Multiple Dihydropyrimidinones at a Time as Inhibitors of Eg5” (Molecules, 2021):

How the values were obtained:
[1] = test system: Caco-2 cell line; test: Cytotoxicity MTS assay, Caco-2 cell line; format: cell-based; conditions: for OD490 Mean / OD490 Well 1 / OD490 Well 2 / OD490 Well 3: Caco-2 cell line; for IC50: MTS assay, 24 h exposure
Procedure: (§1) The positive compounds (IC50 < 100 μM) obtained from the primary Eg5 motor protein ATPase assay were tested for antiproliferative activity in vitro against Caco-2 cell line, Hela cell line, L929 cell line and T24 cell line by performing MTS assay. Cells were introduced into 96-well plates at a density of 1000 cells per well. After 24 h incubation, the cells were exposed with compounds at final concentrations ranging from 0.5 to 100 µM for 24 h. DMSO was used at a final concentration of 0.025% as blank control, monastrol was used as the positive control. Then 20 µL (CellTiter 96® AQueous One Solution Promega, Madison, WI, USA) reagent was added in each well. After 2 h at 37 °C in a 80% humidified, 5% CO2 atmosphere, the absorbance at 490 nm was recorded using a microplate reader (BIO-RAD iMark^TM). The results were obtained in three independent duplicate experiments. The primary data were shown in Supplementary Materials Tables S4–S7. The IC50 values for these compounds were calculated from a non-linear regression graph plotted between the percentage of cell viability and concentration with SPSS17.0 software.

[2] = test system: T24 cell line; test: Cytotoxicity MTS assay, T24 cell line; format: cell-based; conditions: for IC50: MTS assay, 24 h exposure; for OD490 Mean / OD490 Well 1 / OD490 Well 2 / OD490 Well 3: T24 cell line
Procedure: as §1

## CCOC(=O)c1[nH]c(C2NC(=O)NC(C)=C2C(=O)Nc2ccc(Cl)cc2)c(C(=O)OCC)c1C (stereo not shown) [D7]
[1]; 0.5μM, first assay
  OD490 Mean: 0.5690
  OD490 Well 1: 0.5534
  OD490 Well 2: 0.6352
  OD490 Well 3: 0.5185
[1]; 0.5μM, second assay
  OD490 Mean: 0.6172
  OD490 Well 1: 0.6374
  OD490 Well 2: 0.6303
  OD490 Well 3: 0.5839
[1]; 0.5μM, third assay
  OD490 Mean: 0.5837
  OD490 Well 1: 0.6634
  OD490 Well 2: 0.5231
  OD490 Well 3: 0.5647
[1]; 1μM, first assay
  OD490 Mean: 0.5311
  OD490 Well 1: 0.5419
  OD490 Well 2: 0.5318
  OD490 Well 3: 0.5197
[1]; 1μM, second assay
  OD490 Mean: 0.5625
  OD490 Well 1: 0.5454
  OD490 Well 2: 0.5593
  OD490 Well 3: 0.5827
[1]; 1μM, third assay
  OD490 Mean: 0.5540
  OD490 Well 1: 0.5665
  OD490 Well 2: 0.5741
  OD490 Well 3: 0.5214
[1]; 10μM, first assay
  OD490 Mean: 0.5404
  OD490 Well 1: 0.5519
  OD490 Well 2: 0.5485
  OD490 Well 3: 0.5208
[1]; 10μM, second assay
  OD490 Mean: 0.5334
  OD490 Well 1: 0.5402
  OD490 Well 2: 0.5543
  OD490 Well 3: 0.5057
[1]; 10μM, third assay
  OD490 Mean: 0.5421
  OD490 Well 1: 0.5552
  OD490 Well 2: 0.5101
  OD490 Well 3: 0.5610
[1]; 25μM, first assay
  OD490 Mean: 0.5145
  OD490 Well 1: 0.5041
  OD490 Well 2: 0.5114
  OD490 Well 3: 0.5279
[1]; 25μM, second assay
  OD490 Mean: 0.5117
  OD490 Well 1: 0.548
  OD490 Well 2: 0.4698
  OD490 Well 3: 0.5172
[1]; 25μM, third assay
  OD490 Mean: 0.5181
  OD490 Well 1: 0.5221
  OD490 Well 2: 0.5321
  OD490 Well 3: 0.5000
[1]; 50μM, first assay
  OD490 Mean: 0.4389
  OD490 Well 1: 0.5283
  OD490 Well 2: 0.4168
  OD490 Well 3: 0.3716
[1]; 50μM, second assay
  OD490 Mean: 0.4826
  OD490 Well 1: 0.5209
  OD490 Well 2: 0.4937
  OD490 Well 3: 0.4332
[1]; 50μM, third assay
  OD490 Mean: 0.4437
  OD490 Well 1: 0.5112
  OD490 Well 2: 0.4213
  OD490 Well 3: 0.3987
[1]; 100μM, first assay
  OD490 Mean: 0.3891
  OD490 Well 1: 0.3713
  OD490 Well 2: 0.3955
  OD490 Well 3: 0.4006
[1]; 100μM, second assay
  OD490 Mean: 0.4527
  OD490 Well 1: 0.4755
  OD490 Well 2: 0.4428
  OD490 Well 3: 0.4398
[1]; 100μM, third assay
  OD490 Mean: 0.3973
  OD490 Well 1: 0.4012
  OD490 Well 2: 0.4123
  OD490 Well 3: 0.3785
[1]
  IC50: 81.9 µM
[2]
  IC50: > 150 µM
[2]; 0.5μM, first assay
  OD490 Mean: 1.2446
  OD490 Well 1: 1.2491
  OD490 Well 2: 1.2874
  OD490 Well 3: 1.1973
[2]; 1μM, first assay
  OD490 Mean: 1.5295
  OD490 Well 1: 1.4588
  OD490 Well 2: 1.7975
  OD490 Well 3: 1.3323
[2]; 10μM, first assay
  OD490 Mean: 1.4981
  OD490 Well 1: 1.4996
  OD490 Well 2: 1.6104
  OD490 Well 3: 1.3842
[2]; 25μM, first assay
  OD490 Mean: 1.5238
  OD490 Well 1: 1.6186
  OD490 Well 2: 1.5573
  OD490 Well 3: 1.3956
[2]; 50μM, first assay
  OD490 Mean: 1.3341
  OD490 Well 1: 1.3613
  OD490 Well 2: 1.2657
  OD490 Well 3: 1.3754
[2]; 100μM, first assay
  OD490 Mean: 1.4451
  OD490 Well 1: 1.4704
  OD490 Well 2: 1.5023
  OD490 Well 3: 1.3625

## CCOC(=O)C1=C(C)NC(=S)NC1c1cccc(O)c1 (stereo not shown) [Monastrol, monastrol, reference compound]
[1]; 0.5μM, first assay
  OD490 Mean: 0.6317
  OD490 Well 1: 0.6883
  OD490 Well 2: 0.6260
  OD490 Well 3: 0.5808
[1]; 0.5μM, second assay
  OD490 Mean: 0.6461
  OD490 Well 1: 0.6307
  OD490 Well 2: 0.6567
  OD490 Well 3: 0.6508
[1]; 0.5μM, third assay
  OD490 Mean: 0.6299
  OD490 Well 1: 0.6325
  OD490 Well 2: 0.6000
  OD490 Well 3: 0.6531
[1]; 1μM, first assay
  OD490 Mean: 0.6316
  OD490 Well 1: 0.6697
  OD490 Well 2: 0.6037
  OD490 Well 3: 0.6213
[1]; 1μM, second assay
  OD490 Mean: 0.6874
  OD490 Well 1: 0.6746
  OD490 Well 2: 0.7532
  OD490 Well 3: 0.6345
[1]; 1μM, third assay
  OD490 Mean: 0.6466
  OD490 Well 1: 0.6332
  OD490 Well 2: 0.6854
  OD490 Well 3: 0.6211
[1]; 10μM, first assay
  OD490 Mean: 0.6065
  OD490 Well 1: 0.6414
  OD490 Well 2: 0.6303
  OD490 Well 3: 0.5477
[1]; 10μM, second assay
  OD490 Mean: 0.6609
  OD490 Well 1: 0.6953
  OD490 Well 2: 0.6962
  OD490 Well 3: 0.5912
[1]; 10μM, third assay
  OD490 Mean: 0.5909
  OD490 Well 1: 0.6012
  OD490 Well 2: 0.6583
  OD490 Well 3: 0.5132
[1]; 25μM, first assay
  OD490 Mean: 0.5366
  OD490 Well 1: 0.5485
  OD490 Well 2: 0.5284
  OD490 Well 3: 0.5329
[1]; 25μM, second assay
  OD490 Mean: 0.5966
  OD490 Well 1: 0.5969
  OD490 Well 2: 0.6213
  OD490 Well 3: 0.5715
[1]; 25μM, third assay
  OD490 Mean: 0.5678
  OD490 Well 1: 0.5784
  OD490 Well 2: 0.5810
  OD490 Well 3: 0.5439
[1]; 50μM, first assay
  OD490 Mean: 0.4955
  OD490 Well 1: 0.4127
  OD490 Well 2: 0.5627
  OD490 Well 3: 0.5110
[1]; 50μM, second assay
  OD490 Mean: 0.5572
  OD490 Well 1: 0.594
  OD490 Well 2: 0.5177
  OD490 Well 3: 0.5598
[1]; 50μM, third assay
  OD490 Mean: 0.5174
  OD490 Well 1: 0.5287
  OD490 Well 2: 0.5021
  OD490 Well 3: 0.5214
[1]; 100μM, first assay
  OD490 Mean: 0.4461
  OD490 Well 1: 0.4497
  OD490 Well 2: 0.4701
  OD490 Well 3: 0.4184
[1]; 100μM, second assay
  OD490 Mean: 0.5109
  OD490 Well 1: 0.5213
  OD490 Well 2: 0.5306
  OD490 Well 3: 0.4809
[1]; 100μM, third assay
  OD490 Mean: 0.4670
  OD490 Well 1: 0.4321
  OD490 Well 2: 0.4767
  OD490 Well 3: 0.4922
[1]; Homo sapiens, Caco-2
  IC50: 112 µM
[2]; Homo sapiens, T-24
  IC50: 129 µM
[2]; 0.5μM, first assay
  OD490 Mean: 1.5184
  OD490 Well 1: 1.3936
  OD490 Well 2: 1.6757
  OD490 Well 3: 1.4858
[2]; 0.5μM, second assay
  OD490 Mean: 1.7880
  OD490 Well 1: 1.9582
  OD490 Well 2: 1.7425
  OD490 Well 3: 1.6632
[2]; 0.5μM, third assay
  OD490 Mean: 1.7701
  OD490 Well 1: 1.9582
  OD490 Well 2: 1.6852
  OD490 Well 3: 1.6669
[2]; 1μM, first assay
  OD490 Mean: 1.8525
  OD490 Well 1: 1.8866
  OD490 Well 2: 1.8580
  OD490 Well 3: 1.8130
[2]; 1μM, second assay
  OD490 Mean: 1.7956
  OD490 Well 1: 1.8475
  OD490 Well 2: 1.7952
  OD490 Well 3: 1.7442
[2]; 1μM, third assay
  OD490 Mean: 1.6875
  OD490 Well 1: 1.4752
  OD490 Well 2: 1.8852
  OD490 Well 3: 1.7020
[2]; 10μM, first assay
  OD490 Mean: 1.8245
  OD490 Well 1: 1.8141
  OD490 Well 2: 1.7506
  OD490 Well 3: 1.9088
[2]; 10μM, second assay
  OD490 Mean: 1.6766
  OD490 Well 1: 1.5874
  OD490 Well 2: 1.5998
  OD490 Well 3: 1.8425
[2]; 10μM, third assay
  OD490 Mean: 1.6451
  OD490 Well 1: 1.7425
  OD490 Well 2: 1.6625
  OD490 Well 3: 1.5302
[2]; 25μM, first assay
  OD490 Mean: 1.7708
  OD490 Well 1: 1.7726
  OD490 Well 2: 1.7434
  OD490 Well 3: 1.7965
[2]; 25μM, second assay
  OD490 Mean: 1.7004
  OD490 Well 1: 1.7416
  OD490 Well 2: 1.7723
  OD490 Well 3: 1.5874
[2]; 25μM, third assay
  OD490 Mean: 1.7296
  OD490 Well 1: 1.7711
  OD490 Well 2: 1.6854
  OD490 Well 3: 1.7324
[2]; 50μM, first assay
  OD490 Mean: 1.5876
  OD490 Well 1: 1.5372
  OD490 Well 2: 1.6410
  OD490 Well 3: 1.5845
[2]; 50μM, second assay
  OD490 Mean: 1.6611
  OD490 Well 1: 1.6325
  OD490 Well 2: 1.6666
  OD490 Well 3: 1.6841
[2]; 50μM, third assay
  OD490 Mean: 1.4371
  OD490 Well 1: 1.3024
  OD490 Well 2: 1.5270
  OD490 Well 3: 1.4820
[2]; 100μM, first assay
  OD490 Mean: 1.3979
  OD490 Well 1: 1.3668
  OD490 Well 2: 1.4841
  OD490 Well 3: 1.3428
[2]; 100μM, second assay
  OD490 Mean: 1.3537
  OD490 Well 1: 1.3658
  OD490 Well 2: 1.3365
  OD490 Well 3: 1.3587
[2]; 100μM, third assay
  OD490 Mean: 1.3785
  OD490 Well 1: 1.4550
  OD490 Well 2: 1.3885
  OD490 Well 3: 1.2920
